Source: ChEMBL document CHEMBL2010689 (J Med Chem, 2012)
Calls of active or inactive are those of the source. The rule behind the calls is not given here.

Experiments:
[1] = Inhibition of JNK at 1 uM
[2] = system: Mus musculus; assay: Toxicity in athymic nude mouse bearing human A375 cells assessed as apparent toxicity at 0.1 to 10 mg/kg, po; assay type: organism-based, A-375; design: dose 0.1-10 mg/kg, route oral; settings: in vivo
[3] = Inhibition of CDK at 1 uM
[4] = Apparent permeability across human Caco2 cells; assay type: ADME, cell-based; settings: Caco-2
[5] = target: Insulin-like growth factor 1 receptor (Homo sapiens) (UniProt P08069); assay: Inhibition of IGFR1 at 1 uM
[6] = system: HUVEC; assay: Antiangiogenic activity in HUVEC assessed as inhibition of FGF-induced survival; assay type: functional, cell-based; settings: Homo sapiens
[7] = target: Fibroblast growth factor receptor 1 (Homo sapiens, UniProt P11362); assay: Inhibition of human FGFR1 using ATP as substrate
[8] = system: A-375; assay: Antitumor activity against human A375 cells xenografted in athymic nude mouse assessed as complete tumor regression at 0.3 mg/kg, po bid
[9] = target: Epidermal growth factor receptor (Homo sapiens) (UniProt P00533); assay: Inhibition of EGFR at 1 uM
[10] = Terminal half life in cynomolgus monkey at 0.5 mg/kg, iv; assay type: ADME, organism-based, Macaca fascicularis; design: dose 0.5 mg/kg, route intravenous; settings: in vivo, read-out: beta t1/2 (converted)
[11] = Antiangiogenic activity in HMVEC assessed as inhibition of FGF-induced proliferation; assay type: functional; settings: Homo sapiens
[12] = system: P388; assay: Antitumor activity against mouse P388 cells xenografted in DBA/2 mouse assessed as mean survival at 30 mg/kg, po qd for 14 days followed by readministeration after 7 days; assay type: functional
[13] = Antiangiogenic activity in BAEC assessed as inhibition of VEGF-induced migration; assay type: functional; settings: Bos taurus
[14] = Antitumor activity against human U251MG cells xenografted in athymic nude mouse assessed as partial tumor regression at 30 mg/kg, po bid; assay type: functional, U-251
[15] = system: HUVEC; assay: Cytotoxicity against HUVEC; assay type: cell-based; settings: human
[16] = target: Muscarinic acetylcholine receptor M2 (Homo sapiens) (UniProt P08172); assay: Inhibition of muscarinic M2 receptor at 10 uM
[17] = system: HUVEC; assay: Antiangiogenic activity in HUVEC assessed as inhibition of angiopoietin 1-induced chemotaxis at > = 50 nM by boyden chamber assay; assay type: functional, cell-based; settings: Homo sapiens
[18] = system: HUVEC; assay: Antiangiogenic activity in HUVEC assessed as inhibition of FGF-induced proliferation; assay type: functional, cell-based; settings: Homo sapiens
[19] = target: Hepatocyte growth factor receptor (Homo sapiens) (UniProt P08581); assay: Inhibition of cMET at 1 uM
[20] = Oral bioavailability in Sprague-Dawley rat at 5 mg/kg; assay type: ADME, organism-based; settings: in vivo
[21] = Antiangiogenic activity in HMVEC assessed as inhibition of VEGF-induced survival; assay type: functional, Homo sapiens
[22] = Antitumor activity against human U251MG cells xenografted in athymic nude mouse assessed as complete tumor regression at 10 mg/kg, po bid; assay type: functional, U-251
[23] = Volume of distribution in Sprague-Dawley rat at 0.8 mg/kg, iv; assay type: ADME, organism-based; design: dose 0.8 mg/kg, route intravenous; settings: in vivo
[24] = Toxicity in dog purkinje fibres assessed as drug-induced change in action potential; assay type: tissue-based, Canis lupus familiaris, Purkinje fiber
[25] = system: HUVEC; assay: Antiangiogenic activity in HUVEC assessed as inhibition of FGF-induced migration; assay type: functional, cell-based; settings: Homo sapiens
[26] = target: Cytochrome P450 3A4 (Homo sapiens, UniProt P08684); assay: Inhibition of CYP3A4; assay type: ADME
[27] = target: RAC-alpha serine/threonine-protein kinase (Homo sapiens) (UniProt P31749); assay: Inhibition of PKB at 1 uM
[28] = Inhibition of MKK at 1 uM
[29] = system: A-375; assay: Antitumor activity against human A375 cells xenografted in athymic nude mouse assessed as complete tumor regression at 1 mg/kg, po bid; assay type: functional
[30] = system: A-375; assay: Antitumor activity against human A375 cells xenografted in athymic nude mouse assessed as partial tumor regression at 0.3 mg/kg, po bid
[31] = system: Mus musculus; assay: Toxicity in athymic nude mouse bearing human U251MG cells assessed as apparent toxicity at 1 to 30 mg/kg, po; assay type: organism-based, U-251; design: dose 1-30 mg/kg, route oral; settings: in vivo
[32] = Antiangiogenic activity in HMVEC assessed as inhibition of VEGF-induced migration; assay type: functional; settings: Homo sapiens
[33] = target: High affinity nerve growth factor receptor (Homo sapiens, UniProt P04629); assay: Inhibition of human TRK-A using ATP as substrate
[34] = system: Mus musculus; assay: Toxicity in athymic nude mouse bearing human A375 cells assessed as morbidity at 0.1 to 10 mg/kg, po; assay type: organism-based, A-375; design: dose 0.1-10 mg/kg, route oral; settings: in vivo
[35] = target: BDNF/NT-3 growth factors receptor (Homo sapiens, UniProt Q16620); assay: Inhibition of human TRK-B using ATP as substrate
[36] = Tmax in Sprague-Dawley rat at 5 mg/kg, po; assay type: ADME, organism-based; design: dose 5 mg/kg, route oral; settings: in vivo
[37] = Oral bioavailability in cynomolgus monkey at 3 mg/kg; assay type: ADME, organism-based, Macaca fascicularis; settings: in vivo
[38] = system: P388; assay: Antitumor activity against mouse P388 cells xenografted in DBA/2 mouse assessed as mean survival at 30 mg/kg, po qd for 7 days followed by readministeration
[39] = Clearance in cynomolgus monkey at 0.5 mg/kg, iv; assay type: ADME, organism-based, Macaca fascicularis; design: dose 0.5 mg/kg, route intravenous; settings: in vivo
[40] = Inhibition of PDGFR at 1 uM
[41] = Antitumor activity against human U251MG cells xenografted in athymic nude mouse assessed as complete tumor regression at 30 mg/kg, po bid; assay type: functional, U-251
[42] = Metabolic stability in rat liver S9 fraction assessed as compound remaining after 2 hrs; assay type: ADME, subcellular; settings: read-out: Stability
[43] = system: A-375; assay: Antitumor activity against human A375 cells xenografted in athymic nude mouse assessed as tumor growth inhibition at 3 mg/kg, po bid measured on day 29 relative to control; assay type: functional; settings: A-375, 696 h, read-out: GI
[44] = system: A-375; assay: Antitumor activity against human A375 cells xenografted in athymic nude mouse assessed as complete tumor regression at 10 mg/kg, po bid; assay type: functional
[45] = target: Tyrosine-protein kinase ABL1 (Homo sapiens) (UniProt P00519); assay: Inhibition of ABL at 1 uM
[46] = system: Mus musculus; assay: Toxicity in athymic nude mouse bearing human U251MG cells assessed as body weight change at 1 to 30 mg/kg, po; assay type: organism-based, U-251; design: dose 1-30 mg/kg, route oral; settings: in vivo
[47] = target: Muscarinic acetylcholine receptor M4 (Homo sapiens) (UniProt P08173); settings: 10 uM
Description: Inhibition of muscarinic M4 receptor at 10 uM

[48] = system: A-375; assay: Antitumor activity against human A375 cells xenografted in athymic nude mouse assessed as complete tumor regression at 3 mg/kg, po bid; assay type: functional
[49] = target: ALK tyrosine kinase receptor (Homo sapiens, UniProt Q9UM73); assay: Inhibition of human ALK using ATP as substrate
[50] = Tmax in cynomolgus monkey at 3 mg/kg, po; assay type: ADME, organism-based, Macaca fascicularis; design: dose 3 mg/kg, route oral; settings: in vivo
[51] = system: P388; assay: Antitumor activity against mouse P388 cells xenografted in DBA/2 mouse assessed as mean survival at 30 mg/kg, po bid (reference value: 14 days); assay type: functional
[52] = target: Adenosine receptor A2a (Homo sapiens, UniProt P29274); assay: Inhibition of adenosine A2A receptor
[53] = AUC in cynomolgus monkey at 3 mg/kg, po; assay type: ADME, organism-based, Macaca fascicularis; design: dose 3 mg/kg, route oral; settings: plasma

Sequence of Epidermal growth factor receptor (Homo sapiens) (P00533 whole entry): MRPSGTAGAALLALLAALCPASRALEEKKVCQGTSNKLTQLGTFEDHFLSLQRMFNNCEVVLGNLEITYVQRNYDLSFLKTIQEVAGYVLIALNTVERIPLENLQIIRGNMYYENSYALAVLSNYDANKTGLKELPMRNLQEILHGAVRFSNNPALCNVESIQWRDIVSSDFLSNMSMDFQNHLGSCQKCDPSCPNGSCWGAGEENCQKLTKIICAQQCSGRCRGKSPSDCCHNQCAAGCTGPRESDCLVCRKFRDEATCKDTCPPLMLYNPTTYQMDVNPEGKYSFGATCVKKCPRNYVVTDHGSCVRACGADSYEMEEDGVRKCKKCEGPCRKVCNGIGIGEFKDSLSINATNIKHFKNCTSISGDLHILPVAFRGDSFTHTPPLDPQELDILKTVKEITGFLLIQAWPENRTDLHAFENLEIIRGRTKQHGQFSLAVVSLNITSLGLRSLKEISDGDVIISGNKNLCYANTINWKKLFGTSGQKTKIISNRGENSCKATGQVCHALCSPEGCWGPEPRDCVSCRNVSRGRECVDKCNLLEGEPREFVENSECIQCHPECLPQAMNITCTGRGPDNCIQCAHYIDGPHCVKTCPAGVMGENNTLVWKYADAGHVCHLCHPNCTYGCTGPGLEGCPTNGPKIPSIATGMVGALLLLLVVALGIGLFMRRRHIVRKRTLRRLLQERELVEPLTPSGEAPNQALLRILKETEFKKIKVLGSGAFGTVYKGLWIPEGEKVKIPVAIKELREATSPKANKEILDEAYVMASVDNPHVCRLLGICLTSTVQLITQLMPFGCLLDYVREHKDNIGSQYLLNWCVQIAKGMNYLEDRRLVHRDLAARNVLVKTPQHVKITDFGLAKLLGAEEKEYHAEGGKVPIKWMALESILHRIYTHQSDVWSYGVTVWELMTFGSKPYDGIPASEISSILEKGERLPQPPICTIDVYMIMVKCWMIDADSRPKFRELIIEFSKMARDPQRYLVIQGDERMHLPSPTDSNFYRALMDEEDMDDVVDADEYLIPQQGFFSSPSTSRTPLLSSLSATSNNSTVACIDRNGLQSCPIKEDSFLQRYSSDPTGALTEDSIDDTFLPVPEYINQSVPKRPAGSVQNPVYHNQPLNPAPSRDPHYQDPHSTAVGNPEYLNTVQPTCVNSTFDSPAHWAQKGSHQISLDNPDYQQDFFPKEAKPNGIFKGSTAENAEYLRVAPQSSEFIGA
Sequence of Cytochrome P450 3A4 (P08684 whole entry): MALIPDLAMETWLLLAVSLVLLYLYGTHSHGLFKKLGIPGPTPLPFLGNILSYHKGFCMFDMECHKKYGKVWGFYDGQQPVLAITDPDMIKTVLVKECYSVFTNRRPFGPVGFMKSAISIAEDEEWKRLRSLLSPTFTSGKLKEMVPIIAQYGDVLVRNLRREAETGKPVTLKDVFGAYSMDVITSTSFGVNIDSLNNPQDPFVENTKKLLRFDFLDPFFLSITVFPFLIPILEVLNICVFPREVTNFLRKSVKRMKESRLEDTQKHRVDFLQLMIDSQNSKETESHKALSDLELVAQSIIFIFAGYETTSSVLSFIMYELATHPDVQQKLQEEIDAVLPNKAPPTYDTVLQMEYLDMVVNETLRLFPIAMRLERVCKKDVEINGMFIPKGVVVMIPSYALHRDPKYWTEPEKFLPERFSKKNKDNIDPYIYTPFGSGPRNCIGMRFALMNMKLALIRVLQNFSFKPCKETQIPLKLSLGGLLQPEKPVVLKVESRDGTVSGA
Sequence of Muscarinic acetylcholine receptor M2 (Homo sapiens) (P08172 whole entry): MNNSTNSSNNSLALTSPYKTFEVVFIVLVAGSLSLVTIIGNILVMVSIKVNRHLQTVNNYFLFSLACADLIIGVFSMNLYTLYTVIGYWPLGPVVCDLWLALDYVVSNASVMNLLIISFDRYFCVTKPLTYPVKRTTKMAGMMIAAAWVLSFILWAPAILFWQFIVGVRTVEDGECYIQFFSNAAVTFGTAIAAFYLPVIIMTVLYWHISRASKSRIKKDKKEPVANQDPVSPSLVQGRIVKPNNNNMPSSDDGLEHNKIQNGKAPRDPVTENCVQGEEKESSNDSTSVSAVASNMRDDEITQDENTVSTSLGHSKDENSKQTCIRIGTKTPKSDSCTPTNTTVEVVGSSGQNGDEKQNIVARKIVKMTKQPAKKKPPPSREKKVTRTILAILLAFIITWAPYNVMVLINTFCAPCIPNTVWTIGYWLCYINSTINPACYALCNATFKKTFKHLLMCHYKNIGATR
Sequence of High affinity nerve growth factor receptor (P04629 whole entry): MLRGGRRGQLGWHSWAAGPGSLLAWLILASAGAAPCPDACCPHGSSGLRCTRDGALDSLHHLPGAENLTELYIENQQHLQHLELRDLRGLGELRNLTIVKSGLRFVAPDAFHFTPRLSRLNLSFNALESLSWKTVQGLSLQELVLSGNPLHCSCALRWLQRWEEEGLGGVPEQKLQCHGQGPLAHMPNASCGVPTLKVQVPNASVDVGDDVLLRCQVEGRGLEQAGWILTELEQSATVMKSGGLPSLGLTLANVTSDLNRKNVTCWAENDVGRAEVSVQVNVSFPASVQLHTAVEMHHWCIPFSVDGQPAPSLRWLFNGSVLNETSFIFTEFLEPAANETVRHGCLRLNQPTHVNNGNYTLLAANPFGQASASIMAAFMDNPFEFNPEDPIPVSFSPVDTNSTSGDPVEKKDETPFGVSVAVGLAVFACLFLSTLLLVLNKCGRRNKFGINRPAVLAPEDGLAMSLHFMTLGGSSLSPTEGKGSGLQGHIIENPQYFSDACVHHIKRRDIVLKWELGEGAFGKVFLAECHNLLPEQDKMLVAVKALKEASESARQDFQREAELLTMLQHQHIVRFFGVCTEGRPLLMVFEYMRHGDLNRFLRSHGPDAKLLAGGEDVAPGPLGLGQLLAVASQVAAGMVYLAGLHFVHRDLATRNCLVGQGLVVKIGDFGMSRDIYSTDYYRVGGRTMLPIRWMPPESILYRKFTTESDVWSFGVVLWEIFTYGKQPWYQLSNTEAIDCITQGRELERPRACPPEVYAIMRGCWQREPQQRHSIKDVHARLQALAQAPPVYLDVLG
Sequence of Muscarinic acetylcholine receptor M4 (Homo sapiens) (P08173 whole entry): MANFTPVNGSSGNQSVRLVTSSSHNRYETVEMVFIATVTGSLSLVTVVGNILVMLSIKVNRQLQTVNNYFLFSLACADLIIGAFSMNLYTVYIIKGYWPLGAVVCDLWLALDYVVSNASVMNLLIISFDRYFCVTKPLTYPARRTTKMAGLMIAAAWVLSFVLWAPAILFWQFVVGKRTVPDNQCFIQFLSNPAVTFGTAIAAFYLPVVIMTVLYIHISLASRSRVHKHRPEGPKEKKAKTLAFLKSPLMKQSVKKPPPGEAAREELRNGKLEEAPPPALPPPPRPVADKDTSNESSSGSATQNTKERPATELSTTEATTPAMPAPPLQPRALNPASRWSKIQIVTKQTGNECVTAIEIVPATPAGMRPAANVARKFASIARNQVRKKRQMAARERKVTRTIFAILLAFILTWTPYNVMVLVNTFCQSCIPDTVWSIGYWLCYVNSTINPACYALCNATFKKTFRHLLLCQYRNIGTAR
Sequence of RAC-alpha serine/threonine-protein kinase (Homo sapiens) (P31749 whole entry): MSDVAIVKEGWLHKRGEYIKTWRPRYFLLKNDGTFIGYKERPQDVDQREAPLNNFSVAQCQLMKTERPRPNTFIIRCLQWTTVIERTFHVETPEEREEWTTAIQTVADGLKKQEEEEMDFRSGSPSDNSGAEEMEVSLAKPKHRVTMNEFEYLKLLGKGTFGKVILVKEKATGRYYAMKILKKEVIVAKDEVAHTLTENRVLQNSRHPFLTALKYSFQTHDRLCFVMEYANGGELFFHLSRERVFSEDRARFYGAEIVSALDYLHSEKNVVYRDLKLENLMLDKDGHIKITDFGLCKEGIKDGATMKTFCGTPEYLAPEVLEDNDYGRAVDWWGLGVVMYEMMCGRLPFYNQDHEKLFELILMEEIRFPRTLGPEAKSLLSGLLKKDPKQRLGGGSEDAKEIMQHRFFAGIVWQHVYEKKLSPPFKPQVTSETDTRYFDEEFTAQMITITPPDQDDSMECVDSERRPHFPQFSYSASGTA
Sequence of BDNF/NT-3 growth factors receptor (Q16620 whole entry): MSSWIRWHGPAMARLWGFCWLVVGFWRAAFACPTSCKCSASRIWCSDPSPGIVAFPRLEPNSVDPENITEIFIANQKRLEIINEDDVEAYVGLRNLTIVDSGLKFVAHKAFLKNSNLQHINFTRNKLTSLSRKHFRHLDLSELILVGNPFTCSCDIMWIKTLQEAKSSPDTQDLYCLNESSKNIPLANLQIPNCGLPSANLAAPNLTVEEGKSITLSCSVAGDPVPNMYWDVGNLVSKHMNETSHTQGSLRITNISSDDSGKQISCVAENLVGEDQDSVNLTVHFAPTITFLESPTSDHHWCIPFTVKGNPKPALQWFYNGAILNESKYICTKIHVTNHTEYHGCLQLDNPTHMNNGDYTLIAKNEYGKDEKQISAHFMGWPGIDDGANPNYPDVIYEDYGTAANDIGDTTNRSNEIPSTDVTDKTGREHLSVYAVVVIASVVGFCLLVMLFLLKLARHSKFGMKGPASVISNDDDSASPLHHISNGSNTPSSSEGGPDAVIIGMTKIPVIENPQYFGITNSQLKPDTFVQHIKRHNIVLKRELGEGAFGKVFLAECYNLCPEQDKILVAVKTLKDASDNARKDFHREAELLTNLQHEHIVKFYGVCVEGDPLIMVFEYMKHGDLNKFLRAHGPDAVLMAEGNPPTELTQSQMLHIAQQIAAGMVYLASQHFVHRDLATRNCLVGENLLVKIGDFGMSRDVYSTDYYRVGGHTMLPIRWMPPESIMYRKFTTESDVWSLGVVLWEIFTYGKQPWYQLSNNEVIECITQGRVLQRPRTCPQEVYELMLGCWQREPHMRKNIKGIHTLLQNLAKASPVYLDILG

For `CC(C)Cn1c2ccc(Nc3ncccn3)cc2c2c3c(c4c(c21)CCc1nn(C)cc1-4)C(=O)NC3` [CEP-11981], the inhibition [1] was “Active”, the Activity [2] was “Non-toxic” and the inhibition [3] was “Active”. For the same compound, the Papp [4] was greater than 4 ×10⁻⁶ cm/s, the inhibition [5] was “Active” and the EC50 [6] was 8 nM. The IC50 [7] was 13 nM, the Activity [8] was 10% and the inhibition [9] was “Active”. The half-life [10] was 1.7 h, the EC50 [11] was 8 nM and the MSD [12] was 23.5 days. For the same compound, the EC50 [13] was 8 nM, the Activity [14] was 44% and the Activity [15] was “Non-toxic”. For the same compound, the inhibition [16] was greater than 80%, the Activity [17] was “Active” and the EC50 [18] was 8 nM. The inhibition [19] was “Active”, the bioavailability [20] was 44% and the EC50 [21] was 8 nM. For the same compound, the Activity [22] was 0%, the Vd [23] was 1.3 L/kg and the Activity [24] was “Non-toxic”. For the same compound, the EC50 [25] was 8 nM, the IC50 [26] was greater than 30000 nM and the inhibition [27] was “Active”. For the same compound, the inhibition [28] was “Active”, the Activity [29] was 20% and the Activity [30] was 20%. The Activity [31] was “Non-toxic”, the EC50 [32] was 8 nM and the IC50 [33] was 3 nM. The Activity [34] was “Non-toxic”, the IC50 [35] was 5 nM and the Tmax [36] was 2 h. For the same compound, the bioavailability [37] was 93%, the MSD [38] was 20.5 days and the clearance [39] was 18 mL/min/kg. For the same compound, the inhibition [40] was “Active”, the Activity [41] was 0% and the remaining at 2 h [42] was 65%. The inhibition in vivo at 3 mg/kg [43] was 90%, the Activity [44] was 40% and the inhibition [45] was “Active”. For the same compound, the Activity [46] was “Non-toxic”, the inhibition [47] was greater than 80% and the Activity [48] was 22%. The IC50 [49] was 132 nM, the Tmax [50] was 2 h and the MSD [51] was 27.5 days. It also gave a Ki [52] of 500 nM and an AUC [53] of 2480 ng·h/mL.
